Tests used:
[1] = system: C57 mice fed with 10% lard and 5% fructose; assay: Liver pathology (HE, Oil red O staining, SAF scoring) in mice on high-fat and high-sugar diet; type: in vivo; conditions: vs high-fat group
Procedure: (§1) C57 mice were selected and fed with feedstuffs that were added with 10% lard and 5% fructose. After 12 weeks, the mice suffered from liver metabolism disruption, generated insulin resistance, and were stuck in mitochondrial dysfunction in liver cells, thus resulting in a decrease in fatty acid β-oxidation capacity and fat accumulation in the liver, and inflammation and fibrosis were produced. Artemisinin was given at a dosage of 100 mg/kg from the 13th week as a treatment for 12 weeks. At the end of the experiment, the mice were dissected to obtain livers. A part of the livers was subjected to HE staining and Oli red O staining to quantify the liver lipids and conduct a pathological scoring of liver steatosis of the mice based on the steatosis activity fibrosis (SAF) scoring system.

[2] = system: C57 mice fed with 10% lard and 5% fructose; assay: Serum enzyme detection in mice on high-fat and high-sugar diet; type: in vivo; conditions: artemisinin 100 mg/kg for 12 weeks, vs high-fat diet
Procedure: as §1, with “system. […] The serum of each group of mice mentioned above was taken and subjected to serum enzyme detection.” for “system.”

[3] = system: C57 mice fed with 10% lard and 5% fructose; assay: Expression of lipid metabolism-related genes in liver tissue of mice on high-fat and high-sugar diet; type: in vivo; conditions: artemisinin 100 mg/kg for 12 weeks, FIGS. 10A-10I
Procedure: as §1, with “system. […] A part of the livers of the mice in each group mentioned above was taken, RNA and protein were extracted, and the study of the expression of related genes and proteins was conducted to detect the expression levels of lipid metabolism-related genes in liver tissue.” for “system.”

[4] = system: C57 mice fed with 10% lard and 5% fructose; assay: Expression of autophagy-related proteins (TOR, LC3) in liver of mice on high-fat and high-sugar diet; type: in vivo; conditions: artemisinin 100 mg/kg for 12 weeks, FIGS. 11A-11G
Procedure: as §1
A part of the livers of the mice in each group mentioned above was taken, RNA and protein were extracted, and the study of the expression of related genes and proteins was conducted to detect the expression levels of lipid metabolism-related genes in liver tissue.
Target of rapamycin (TOR) is a key protein in the control of autophagy, which can sense various change signals of cells and strengthen or reduce the occurrence level of autophagy.

HepG2 liver cancer cells [5] = assay: Lipid accumulation (triglyceride content, Nile red lipid droplets) in FFA-treated HepG2 liver cancer cells; type: cell-based, human; conditions: 1 mM/L FFA, 5 μM/L artesunate, 24 h, vs model group
HepG2 liver cancer cells [6] = assay: qRT-PCR expression of CIDE, AMPK pathway and PPAR pathway genes in FFA-treated HepG2 cells; type: cell-based, human; conditions: 1 mM/L FFA, 5 μM/L artesunate, 24 h
Procedure: Experimental methods: HepG-2 liver cancer cells with passage times less than 20 times were selected and inoculated into a 12-well plate at a density of 3×10^5 cells/mL. Drug treatment was performed after inoculating for 24 h, and the cells were divided into 3 groups with 4 wells in each group. A complete medium containing 1% bovine serum albumin (BSA) was used as the control group. A complete medium containing 1% BSA and 1 mM/L FFA was used as the high-fat model group. A complete medium containing 1% BSA, 1 mM/L FFA, and 5 μM/L, artesunate was used as the artesunate group. After being treated for 24 h, the cells were collected, and RNA was extracted and reverse-transcribed into cDNA. Quantitative real-time PCR (qRT-PCR) was used to detect the expression of CIDE series genes. AMPK signaling pathway-related genes, and PPAR signaling pathway-related genes in the three groups of cells.

[7] = vs model group, p<0.001, FIG. 7

Compound | score of lobular inflammation (SAF scoring system) ([1]; artemisinin 100 mg/kg for 12 weeks, FIG. 9C) | score of ballooning of liver cells (SAF scoring system) ([1]; artemisinin 100 mg/kg for 12 weeks, FIG. 9D) | liver steatosis (fat blebs, Oil red O staining areas) ([1]; artemisinin 100 mg/kg from the 13th week for 12 weeks, FIG. 8) | ALT level in the serum ([2]; FIG. 9E) | AST level in the serum ([2]; FIG. 9F) | upstream gene expression levels of genes related to lipid synthesis in liver [3] | mitochondrial dysfunction and autophagy (mitophagy) level in liver [4] | content of triglyceride (TG) in HepG2 liver cancer cells (HepG2 liver cancer cells [5]; FIG. 1) | number of large lipid droplets (Nile red staining) (HepG2 liver cancer cells [5]; FIGS. 2A-2B) | expression of SREBP1c-ACC/SCD1/FAS genes related to intracellular fatty acid synthesis (HepG2 liver cancer cells [6]; FIG. 5) | mRNA level of PPARct. (HepG2 liver cancer cells [6]; [7]) | mRNA level of PPARy (HepG2 liver cancer cells [6]; [7]) | mRNA level of AMPKα (PRKAA1) (HepG2 liver cancer cells [6]; vs model group, p<0.01, FIG. 4) | mRNA level of carnitine palmitoyl transferase 1 (CPT-1) (HepG2 liver cancer cells [6]; vs model group, p<0.01, FIG. 6) | mRNA expression of Cide-a gene (HepG2 liver cancer cells [6]; vs model group, FIG. 3) | mRNA expression of Cide-b gene (HepG2 liver cancer cells [6]; vs model group, FIG. 3)
C[C@@H]1CC[C@H]2[C@@H](C)C(=O)O[C@@H]3O[C@@]4(C)CC[C@@H]1[C@]32OO4 [artemisinin] | significantly reduced | significantly reduced | significantly improve liver steatosis | significantly reduce the elevation | significantly reduce the elevation | inhibited | effectively resist the mitochondrial dysfunction and the decrease in the autophagy level |  |  |  |  |  |  |  |  | 
C[C@H]1[C@H](OC(=O)CCC(=O)O)O[C@@H]2O[C@@]3(C)CC[C@H]4[C@H](C)CC[C@@H]1[C@@]24OO3 [artesunate] |  |  |  |  |  |  |  | significantly decreased | decreased | reduce the expression | significantly up-regulated | significantly up-regulated | significantly up-regulated | significantly up-regulated | significantly lower | significantly lower
